Data published in patent publication US20060045855A1, “Oral composition for reducing plaque and microbial infections and whitening teeth” (priority 2004, published 2006).

Legend:
[1] = Time-course of generation of ClO2 after 1:1 mixing of NaClO2 solution and oxidizing agent solution, change in absorption at 360 nm; settings: from NaClO2 in the presence of the oxidizing agent
Description: The pH of the resulting composition should be at or below about 7, but above the pKa of chlorous acid. It is known that ClO2 is generated from NaClO2 at pH values at or below about 7 in the absence of an oxidizing agent such as […]. However, the generation is quite slow (on the order of days and months). In the presence of an oxidizing agent such as […] or tannic acid, under the conditions described above, therapeutically effective levels of ClO2 begin to be generated in seconds, as shown below in Tables 1 and 2. Increasing the concentration of the oxidizing agent by weight will cause a more rapid generation of ClO2.

[2] = same solution as H2O2; cited from earlier work
[3] = standard temperature and pressure; cited from earlier work

Compound	time in which therapeutically effective levels of ClO2 begin to be generated [1]	stability in the presence of H2O2 [2]	solubility in water [3]
O=C1O[C@H]([C@@H](O)CO)C(O)=C1O [ascorbic acid]	in seconds		
O=S(=O)([O-])OOS(=O)(=O)[O-].[Na+].[Na+] [sodium persulfate]		degrades very quickly	
O=C(OC[C@H]1O[C@@H](OC(=O)c2cc(O)c(O)c(OC(=O)c3cc(O)c(O)c(O)c3)c2)[C@H](OC(=O)c2cc(O)c(O)c(OC(=O)c3cc(O)c(O)c(O)c3)c2)[C@@H](OC(=O)c2cc(O)c(O)c(OC(=O)c3cc(O)c(O)c(O)c3)c2)[C@@H]1OC(=O)c1cc(O)c(O)c(OC(=O)c2cc(O)c(O)c(O)c2)c1)c1cc(O)c(O)c(OC(=O)c2cc(O)c(O)c(O)c2)c1 [tannic acid]	in seconds		1 g/0.35 mL water
